Patent US8741892B2, “Compounds” (Boehringer Ingelheim International GmbH, priority 2011, dated 2014)

Each compound was assayed against T1, human recombinant mGluR5 (Homo sapiens, UniProt P41594) (assay: positive modulation of mGluR5, calcium based FLIPR assay). Settings: HEK 293 cell line expressing human recombinant mGluR5; EC50 of the modulation from peak Ca fluorescence signal after glutamate at approx. 5% basal stimulation.
T1 construct: expressed in transfected cells; host or cells: HEK 293
T1 sequence (P41594 21-1212): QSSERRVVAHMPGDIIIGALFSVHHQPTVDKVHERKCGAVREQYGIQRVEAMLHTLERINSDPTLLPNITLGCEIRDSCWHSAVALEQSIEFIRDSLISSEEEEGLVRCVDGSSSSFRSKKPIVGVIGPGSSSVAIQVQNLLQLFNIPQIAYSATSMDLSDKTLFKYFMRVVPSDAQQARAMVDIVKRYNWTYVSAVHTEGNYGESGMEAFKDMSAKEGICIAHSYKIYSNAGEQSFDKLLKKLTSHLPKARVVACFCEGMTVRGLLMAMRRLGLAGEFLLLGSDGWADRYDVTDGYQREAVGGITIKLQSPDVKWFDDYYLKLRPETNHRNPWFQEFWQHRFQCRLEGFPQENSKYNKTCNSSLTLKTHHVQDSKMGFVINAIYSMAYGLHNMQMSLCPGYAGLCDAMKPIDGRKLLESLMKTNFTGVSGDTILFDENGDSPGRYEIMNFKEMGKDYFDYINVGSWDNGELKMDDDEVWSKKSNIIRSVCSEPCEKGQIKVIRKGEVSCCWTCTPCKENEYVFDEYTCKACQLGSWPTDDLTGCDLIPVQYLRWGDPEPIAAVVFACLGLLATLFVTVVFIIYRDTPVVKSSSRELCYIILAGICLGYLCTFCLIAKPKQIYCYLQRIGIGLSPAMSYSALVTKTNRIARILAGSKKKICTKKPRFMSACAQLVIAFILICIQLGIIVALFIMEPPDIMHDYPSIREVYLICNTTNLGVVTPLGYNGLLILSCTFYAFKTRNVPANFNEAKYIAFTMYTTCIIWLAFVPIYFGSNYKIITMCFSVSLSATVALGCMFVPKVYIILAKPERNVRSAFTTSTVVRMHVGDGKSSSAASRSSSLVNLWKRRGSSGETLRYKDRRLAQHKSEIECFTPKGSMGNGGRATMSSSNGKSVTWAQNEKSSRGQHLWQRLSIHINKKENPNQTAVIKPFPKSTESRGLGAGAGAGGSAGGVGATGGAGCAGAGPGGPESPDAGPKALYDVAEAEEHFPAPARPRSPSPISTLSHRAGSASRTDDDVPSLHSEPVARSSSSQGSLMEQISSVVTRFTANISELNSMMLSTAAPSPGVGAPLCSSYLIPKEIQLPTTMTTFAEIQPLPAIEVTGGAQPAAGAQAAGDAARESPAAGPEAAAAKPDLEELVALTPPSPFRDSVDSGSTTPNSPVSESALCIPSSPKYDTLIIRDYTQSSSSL
Procedure: The positive modulation of mGluR5 is measured in a HEK 293 cell line expressing human recombinant mGluR5 and is detected with calcium based FLIPR assay. The cells are cultured with DMEM supplemented with 10% FCS, 2 μg/mL tetracycline, 100 μg/mL hygromycin and 500 μg/mL geneticin. The cell culture media is exchanged for tetracycline-free cell culture media 3-7 days before the assay. One day before the assay the cell culture medium is exchanged to DMEM without glutamine and phenol red and supplemented with 10% FCS, 100 μg/mL hygromycin and 500 μg/mL geneticin. On the assay day, the medium of the subconfluent cultures is removed and the cells are detached by addition of 2.5 ml EDTA (0.02%) per 175 cm2 culture flask for 1 minute. The cells are resuspend in Ringer solution (140 mM NaCl, 5 mM KCl, 2.5 mM CaCl2, 1.5 mM MgCl2, 5 mM Glucose, 10 mM Hepes; adjusted to pH 7.4 with NaOH), pooled and Ringer solution added to adjust the volume to 50 mL. The cell suspension is centrifuged for […] at 1500 U/min (425 g). The supernatant is removed and the cells washed a second time with 50 ml fresh Ringer solution and centrifuged again as before. The supernatant is again removed and the pellet resuspended in Ringer solution to 1,000,000 cells/ml (1×10^6 cells/mL). The cells are plated onto BD BioCoat Poly-D-Lysine 384 well plates (20.000 cells/well; 20 μl/well). The lid covered plates are then incubated until use at 37° C./10% CO2. For dye loading, 20 μl of Calcium-4 assay kit solution (prepared according to the manufacturer's description in Ringer solution) are added to the cells and the plates are incubated for […] 37° C. and then […] at room temperature.
Controls, Compound Dilution and Assay Execution:
Each assay plate contained wells with “high” and “low” controls:
Low controls 1% DMSO/ringer solution+basal glutamate activation (defined as 100% CTL).
High controls 10 μM CDPPB+basal glutamate activation (defined as 200% CTL).
Test compounds are dissolved and diluted in DMSO to 100-fold the desired concentrations. In a second step, the compounds are diluted in Ringer solution such that the compounds are 4-fold more concentrated than the desired final assay concentration. The final DMSO concentration was 1%.
20 μl of each compound solution are then transferred to the assay plate and the Ca2+ kinetic is measured to determine any intrinsic compound activity. After 5 mM incubation in the FLIPR device, the second stimulation with 20 μl of glutamate in Ringer solution (glutamate concentration adjusted to approximately 5% basal stimulation of the maximal possible glutamate effect) is added and the kinetic Ca2+ response of the wells was measured for the modulation effect.
The peak height of the Ca release related fluorescence signal (9-66) is used for the EC50. The EC50 of the modulation is calculated over a nonlinear regression with GraphPad Prism (Table 1).
For `O=C(Cn1nc(-c2ccccc2)cc1-c1ccccc1)N1CCN(c2nnc(C(F)(F)F)s2)CC1` [Example 7.01.042], the EC50 was 285 nM.
`Cc1nc2c(o1)CCN(C(=O)Cn1nc(-c3ccc(F)c(C)c3)cc1-c1ccccc1)C2` [Example 7.01.085] showed an EC50 of 26 nM.
For `Nc1nnc(C2CCN(C(=O)Cn3nc(-c4ccccc4)cc3-c3ccccc3)CC2)o1` [Example 7.01.033], the EC50 was 1530 nM.
Work on `CCc1cc(-c2ccc(F)c(C)c2)nn1CC(=O)N1CCc2nc(OC)sc2CC1` [Example 7.01.054] yielded an EC50 of 53 nM.
`Cc1nc2c(s1)CCN(C(=O)Cn1nc(-c3ccc(F)c(C)c3)cc1C(C)C)CC2` [Example 7.02.055] was tested, and the EC50 was 42 nM.
With `COc1ccc(-c2cc(C(C)C)n(CC(=O)N3CCc4ccc(OC)cc4CC3)n2)cc1` [Example 7.02.044] the EC50 was 735 nM.
`CC(C)c1cc(-c2ccc(F)cc2)nn1CC(=O)N1CCc2nc(N)sc2CC1` [Example 7.02.073] gave an EC50 of 627 nM.
`COCc1nnc(C2CCN(C(=O)Cn3nc(-c4ccc(F)c(C)c4)cc3-c3ccccc3)CC2)o1` [Example 7.02.227] was tested, and the EC50 was 35 nM.
For `CCCc1cc(-c2ccc(F)c(C)c2)nn1CC(=O)N1CCC(c2cc(OC)ncn2)CC1` [Example 7.02.068], the EC50 was 199 nM.
`CCc1cc(-c2ccc(C)c(F)c2)nn1CC(=O)N1Cc2nc(C)sc2C1` [Example 7.02.239] showed an EC50 of 842 nM.
Work on `CCCc1cc(-c2ccc(F)c(C)c2)nn1CC(=O)N1CC=C(c2cc(OC)ncn2)CC1` [Example 7.02.070] yielded an EC50 of 40 nM.
With `Cc1nc2c(s1)CN(C(=O)Cn1nc(-c3ccc(C)c(C)n3)cc1-c1ccccc1)C2` [Example 7.02.124] the EC50 was 68 nM.
With `Cc1nc2c(s1)CN(C(=O)Cn1nc(-c3ccc(C)c(F)c3)cc1-c1ccccc1)C2` [Example 7.02.252] the EC50 was 69 nM.
`CCc1cc(-c2ccc(C)c(C)c2)nn1CC(=O)N1CC=C(c2cc(OC)ncn2)CC1` [Example 7.02.078] gave an EC50 of 232 nM.
`COc1cc(C2CCN(C(=O)Cn3nc(-c4ccc(C)c(C)c4)cc3-c3ccccc3)CC2)ncn1` [Example 7.02.091] gave an EC50 of 115 nM.
With `COc1cc(C2=CCN(C(=O)Cn3nc(-c4cccc(C)c4)cc3-c3ccccc3)CC2)ncn1` [Example 7.02.202] the EC50 was 19 nM.
In the case of `COc1cc(C2CCN(C(=O)Cn3nc(-c4ccc(F)c(C)c4)cc3-c3ccccc3)CC2)ncn1` [Example 7.02.021], the EC50 is reported as 55 nM.
In the case of `CCCc1cc(-c2ccc(F)c(C)c2)nn1CC(=O)N1CCC(c2ncc(C)o2)CC1` [Example 7.02.208], the EC50 is reported as 36 nM.
`Cc1nc2c(s1)CCN(C(=O)Cn1nc(-c3ccc(OC(F)F)cn3)cc1-c1ccccc1)CC2` [Example 7.02.236] was tested, and the EC50 was 69 nM.
`CCc1nnc(N2CCN(C(=O)Cn3nc(-c4ccc(F)c(C)c4)cc3CC)CC2)o1` [Example 7.02.163] showed an EC50 of 122 nM.
For `Cc1cc(-c2cc(-c3ccccc3)n(CC(=O)N3CCc4nc(N)oc4CC3)n2)ccc1F` [Example 7.01.094], the EC50 was 90 nM.
Work on `CCCc1cc(-c2ccc(F)c(C)c2)nn1CC(=O)N1CCN(c2nnc(C)o2)CC1` [Example 7.02.209] yielded an EC50 of 61 nM.
`CCc1cc(-c2ccc(F)c(C)c2)nn1CC(=O)N1CC=C(c2ncc(C)s2)CC1` [Example 7.02.135] gave an EC50 of 45 nM.
For `Cc1cc(-c2cc(-c3ccccc3)n(CC(=O)N3CCc4nc5ccccc5c(C)c4CC3)n2)ccc1F` [Example 7.01.084], the EC50 was 34 nM.
`CCc1cc(-c2ccc(F)c(C)c2)nn1CC(=O)N1CCN(c2nnc(C(F)(F)F)s2)CC1` [Example 7.02.162] showed an EC50 of 120 nM.
Work on `CCc1cc(-c2ccc(F)c(C)c2)nn1CC(=O)N1CCc2ncsc2CC1` [Example 7.01.073] yielded an EC50 of 84 nM.
`COc1cc(-c2cc(-c3ccccc3)n(CC(=O)N3CCC(c4nnc(C)o4)CC3)n2)ccc1F` [Example 7.02.151] showed an EC50 of 211 nM.
`Cc1nc(N2CCN(C(=O)Cn3nc(-c4ccc(F)c(C)n4)cc3-c3ccccc3)CC2)no1` [Example 7.02.174] showed an EC50 of 39 nM.
With `CCCc1cc(-c2ccc(F)c(C)c2)nn1CC(=O)N1Cc2nc(C)oc2C1` [Example 7.02.214] the EC50 was 11 nM.
Work on `O=C(Cn1nc(-c2ccccc2)cc1-c1ccccc1)N1CCc2nc(-c3ccccc3)ncc2C1` [Example 7.02.005] yielded an EC50 of 1260 nM.
`Cc1nnc(C2CCN(C(=O)Cn3nc(-c4cccc(C#N)c4)cc3-c3ccccc3)CC2)o1` [Example 7.02.193] was tested, and the EC50 was 290 nM.
Compound `CCc1cc(-c2ccc(C)c(C)c2)nn1CC(=O)N1Cc2nc(C)sc2C1` [Example 7.02.075] has an EC50 of 318 nM.
In the case of `COC(=O)c1ccc2c(c1)CCN(C(=O)Cn1nc(-c3ccccc3)cc1-c1ccccc1)C2` [Example 7.01.022], the EC50 is reported as 511 nM.
In the case of `O=C(Cn1nc(-c2ccccc2)cc1-c1ccccc1)N1CCc2cc(F)ccc2C1` [Example 7.01.027], the EC50 is reported as 1020 nM.
In the case of `Cc1nc2c(s1)CCN(C(=O)Cn1nc(-c3ccc(F)c(C)n3)cc1-c1ccccc1)CC2` [Example 7.02.170], the EC50 is reported as 30 nM.
For `Cc1nc2c(s1)CCN(C(=O)Cn1nc(-c3cccc(C#N)c3)cc1-c1ccccc1)CC2` [Example 7.02.189], the EC50 was 15 nM.
`COc1ccc2c(c1)CCN(C(=O)Cn1nc(-c3ccc(F)c(C)c3)cc1-c1ccccc1)CC2` [Example 7.01.083] was tested, and the EC50 was 86 nM.
Work on `Cc1cc(-c2cc(-c3ccccc3)nn2CC(=O)N2CCc3nc(C)sc3CC2)ccn1` [Example 7.01.064] yielded an EC50 of 1230 nM.
For `Cc1nc2c(s1)CN(C(=O)Cn1nc(-c3cccc(C#N)c3)cc1-c1ccccc1)C2` [Example 7.02.191], the EC50 was 80 nM.
With `COc1cccc(N2CCN(C(=O)Cn3nc(-c4ccccc4)cc3-c3ccccc3)CC2=O)c1` [Example 7.01.035] the EC50 was 205 nM.
`Cc1nnc(C2CCN(C(=O)Cn3nc(-c4cccc(Cl)c4)cc3-c3ccccc3)CC2)o1` [Example 7.02.139] showed an EC50 of 101 nM.
`Cc1cnc(-c2cc(-c3ccccc3)n(CC(=O)N3CCc4nc(N)sc4CC3)n2)cc1C` [Example 7.02.127] gave an EC50 of 200 nM.
Work on `O=C(Cn1nc(-c2ccccc2)cc1-c1ccccc1)N1CCc2c(cccc2C(F)(F)F)C1` [Example 7.01.045] yielded an EC50 of 689 nM.
Compound `CCc1cc(-c2cccc(Cl)c2)nn1CC(=O)N1CCC(c2nnc(C)o2)CC1` [Example 7.02.113] has an EC50 of 637 nM.
`Cc1cnc(C2CCN(C(=O)Cn3nc(-c4ccc(F)c(C)c4)cc3-c3ccccc3)CC2)s1` [Example 7.02.140] was tested, and the EC50 was 51 nM.
Work on `Cc1csc(N2CCN(C(=O)Cn3nc(-c4ccccc4)cc3-c3ccccc3)CC2)n1` [Example 7.01.003] yielded an EC50 of 1780 nM.
For `Cc1nnc(C2CCN(C(=O)Cn3nc(-c4ccc(C)c(C)c4)cc3-c3ccccc3)CC2)o1` [Example 7.02.085], the EC50 was 42 nM.
Work on `CCc1cc(-c2cccc(C#N)c2)nn1CC(=O)N1CCC(c2ncc(C)o2)CC1` [Example 7.02.183] yielded an EC50 of 330 nM.
Compound `O=C(Cn1nc(-c2ccccc2)cc1-c1ccccc1)N1CCc2cc(C(F)(F)F)ccc2C1` [Example 7.01.010] has an EC50 of 695 nM.
Compound `CCc1cccc(-c2cc(CC)n(CC(=O)N3CCc4nc(C)sc4CC3)n2)c1` [Example 7.02.129] has an EC50 of 156 nM.
For `Cc1nc2c(o1)CN(C(=O)Cn1nc(-c3ccc(F)c(C)n3)cc1-c1ccccc1)C2` [Example 7.02.173], the EC50 was 38 nM.
`Cc1nc2c(s1)CN(C(=O)Cn1nc(-c3ccccc3)cc1-c1ccccc1)C2` [Example 7.01.005] was tested, and the EC50 was 381 nM.
With `CCCc1cc(-c2ccc(F)c(C)c2)nn1CC(=O)N1CCc2nc(C)sc2CC1` [Example 7.02.067] the EC50 was 6 nM.
`COc1cnc(C2=CCN(C(=O)Cn3nc(-c4cccc(C)c4)cc3-c3ccccc3)CC2)nc1` [Example 7.02.204] gave an EC50 of 47 nM.
Compound `Cc1nnc(C2=CCN(C(=O)Cn3nc(-c4ccc(C)c(C)c4)cc3-c3ccccc3)CC2)o1` [Example 7.02.114] has an EC50 of 29 nM.
In the case of `COc1cc(-c2cc(-c3ccccc3)n(CC(=O)N3Cc4nc(C)sc4C3)n2)ccc1F` [Example 7.02.150], the EC50 is reported as 28 nM.
For `Cc1nc(-c2cc(-c3ccccc3)n(CC(=O)N3CCc4nc(N)sc4CC3)n2)ccc1F` [Example 7.02.171], the EC50 was 68 nM.
Work on `Cc1nnc(N2CCN(C(=O)Cn3nc(-c4ccc(F)c(C)c4)cc3-c3ccccc3)CC2)o1` [Example 7.02.095] yielded an EC50 of 6 nM.
Work on `COc1cc(-c2cc(-c3ccccc3)n(CC(=O)N3CCc4nc(C)sc4CC3)n2)ccc1F` [Example 7.02.148] yielded an EC50 of 15 nM.
`CCc1cc(-c2cccc(C#N)c2)nn1CC(=O)N1CCc2nc(N)sc2CC1` [Example 7.02.185] showed an EC50 of 258 nM.
